The values below come from ChEMBL document CHEMBL5055667, “Development of Novel VEGFR2 Inhibitors Originating from Natural Product Analogues with Antiangiogenic Impact” (J Med Chem, 2021).

pIC50: −log10 of the molar value. Active and inactive are the calls of the source. The calls are words filed in the database; no cut-off is given here.

In data set [1] the target is Vascular endothelial growth factor receptor 2 (Homo sapiens, UniProt P35968). Description: Inhibition of VEGFR2 phosphorylation in VEGF-induced HUVEC cells pretreated measured after overnight incubation by immunoblotting analysis. The format is cell-based. For orientation: A western blot detects proteins with antibodies after separation by electrophoresis.
Data set [2] concerns U-87 MG. The data set can be described thus: Antiangiogenic activity against human U-87MG cells xenografted in mouse assessed as reduction in pVEGFR2 expression at 10 mg/kg, ip treated every other day for 20 days by Western blotting analysis. The data set is classed as functional, U-87MG ATCC. The conditions noted are these: 480 h, time 20 day. (In xenograft studies the graft and the host belong to different species.)

Data set [3] deals with U-87 MG. The data set can be described thus: Antitumor activity against human U-87MG cells xenografted in mouse assessed as reduction in tumor size at 10 mg/kg, ip treated every other day for 20 days. The conditions noted are these: U-87MG ATCC, time 20.0 day. The data set is classed as functional, organism-based.
For data set [4], the system named is U-87 MG. Description: Antiangiogenic activity against human U-87MG cells xenografted in mouse assessed as reduction in Bcl-xl expression at 10 mg/kg, ip treated every other day for 20 days by Western blotting analysis. The note with it: 480 h, time 20 day. The format is functional, U-87MG ATCC.
For data set [5], the system named is U-87 MG. Description: Antiangiogenic activity against human U-87MG cells xenografted in mouse assessed as reduction in CD31 expression at 10 mg/kg, ip treated every other day for 20 days by Western blotting analysis. The format is functional, U-87MG ATCC. The conditions noted are these: 480 h, time 20 day.
Data set [6] deals with U-87 MG. Description: Antiangiogenic activity against human U-87MG cells xenografted in mouse assessed as reduction in HIF1alpha expression at 10 mg/kg, ip treated every other day for 20 days by fluorescence microscopy. The data set is classed as functional, organism-based. The note with it: U-87MG ATCC, time 20.0 day.
The test system of the next data set is Mus musculus. Description: Toxicity in mouse assessed as change in body weight at 10 mg/kg, ip treated every other day for 20 days. The data set is classed as organism-based. The note with it: in vivo, 480 h, time 20 day.
Data set [7] concerns U-87 MG. Description: Antitumor activity against human U-87MG cells xenografted in mouse assessed as reduction in tumor weight at 10 mg/kg, ip treated every other day for 20 days. The format is functional, organism-based. The note with it: U-87MG ATCC, time 20.0 day.
The subject of data set [8] is U-87 MG. Description: Antiangiogenic activity against human U-87MG cells xenografted in mouse assessed as reduction in vascular density at 10 mg/kg, ip treated every other day for 20 days by H& E staining analysis relative to control. The data set is classed as functional, U-87MG ATCC. The conditions noted are these: 480 h, time 20 day.
Data set [9] concerns HUVEC. Description: Antiproliferative activity against HUVEC cells incubated for 72 hrs under serum treatment by MTT assay. The data set is classed as functional, cell-based. The note with it: Homo sapiens. (Tetrazolium dyes change colour on reduction, which living cells bring about.)
Data set [10] has as its system HUVEC. Description: Antiproliferative activity against HUVEC cells incubated for 72 hrs under VEGF treatment by MTT assay. The data set is classed as functional, cell-based. The conditions noted are these: Homo sapiens.
Data set [11] concerns U-87 MG. The data set can be described thus: Antiproliferative activity against human U-87MG cells incubated for 72 hrs under serum treatment by MTT assay. The conditions noted are these: U-87MG ATCC. The format is functional, cell-based.
Data set [12] relates to U-87 MG. The data set can be described thus: Antiproliferative activity against human U87MG cells incubated for 72 hrs under VEGF treatment by MTT assay. The format is functional, cell-based. The note with it: U-87MG ATCC.

Vascular endothelial growth factor receptor 2, sequence (P35968 whole entry): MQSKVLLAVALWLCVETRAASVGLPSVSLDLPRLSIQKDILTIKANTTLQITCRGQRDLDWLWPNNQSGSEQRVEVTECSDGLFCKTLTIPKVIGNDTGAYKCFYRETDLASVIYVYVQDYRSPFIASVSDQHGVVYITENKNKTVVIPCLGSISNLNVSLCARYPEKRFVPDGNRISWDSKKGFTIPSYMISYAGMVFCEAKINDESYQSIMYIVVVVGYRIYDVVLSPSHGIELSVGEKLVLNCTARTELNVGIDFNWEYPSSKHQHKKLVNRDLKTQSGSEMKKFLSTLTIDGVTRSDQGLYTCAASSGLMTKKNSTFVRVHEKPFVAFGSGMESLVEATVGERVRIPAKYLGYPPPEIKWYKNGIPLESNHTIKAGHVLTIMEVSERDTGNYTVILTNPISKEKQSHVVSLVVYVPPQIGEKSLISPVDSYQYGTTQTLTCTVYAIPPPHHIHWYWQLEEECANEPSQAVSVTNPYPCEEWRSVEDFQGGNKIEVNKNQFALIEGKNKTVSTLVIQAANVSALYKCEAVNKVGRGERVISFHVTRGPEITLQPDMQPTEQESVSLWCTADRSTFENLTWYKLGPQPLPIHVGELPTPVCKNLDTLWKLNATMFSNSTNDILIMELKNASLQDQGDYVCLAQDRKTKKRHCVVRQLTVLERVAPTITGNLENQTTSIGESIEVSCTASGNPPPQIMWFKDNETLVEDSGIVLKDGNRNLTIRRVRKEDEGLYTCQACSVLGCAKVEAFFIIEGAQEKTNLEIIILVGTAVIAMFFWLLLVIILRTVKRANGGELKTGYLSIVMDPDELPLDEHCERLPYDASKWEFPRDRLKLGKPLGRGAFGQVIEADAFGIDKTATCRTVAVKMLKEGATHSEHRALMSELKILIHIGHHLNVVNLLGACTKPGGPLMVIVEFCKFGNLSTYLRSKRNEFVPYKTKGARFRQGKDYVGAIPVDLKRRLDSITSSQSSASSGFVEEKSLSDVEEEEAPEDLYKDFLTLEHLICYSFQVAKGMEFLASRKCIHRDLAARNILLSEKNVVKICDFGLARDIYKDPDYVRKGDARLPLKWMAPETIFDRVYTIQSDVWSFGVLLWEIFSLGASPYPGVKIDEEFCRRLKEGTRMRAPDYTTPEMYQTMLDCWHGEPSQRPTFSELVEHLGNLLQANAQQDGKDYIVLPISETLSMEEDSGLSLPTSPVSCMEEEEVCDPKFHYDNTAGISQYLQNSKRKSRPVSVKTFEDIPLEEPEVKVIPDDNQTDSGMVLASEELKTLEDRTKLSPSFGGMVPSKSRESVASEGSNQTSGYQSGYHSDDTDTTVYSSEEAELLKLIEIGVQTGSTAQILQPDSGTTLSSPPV

With `COc1ccc2[nH]c3c(c2c1)CNCCC3`, the negative logarithm of the IC50 (pIC50) in data set [1] was less than 4.70.

As for `COc1ccc2[nH]c3c(c2c1)CN(C(=O)Cc1ccccn1)CCC3`, the inhibition in vivo at 10 mg/kg in the data set on U-87 MG [2] stood at 60%; in the data set with U-87 MG [4] it was 20%; in the data set with U-87 MG [5], 60%; in the data set with U-87 MG [8] it was 73%. The result in the data set on U-87 MG [3], in the data set with U-87 MG [6], in the data set on U-87 MG [7], in the data set on HUVEC [10] and with U-87 MG [12] was Active. For the same molecule, in the data set with Mus musculus, the Activity entry is given as “Non-Toxic”. In addition, the result in the data set with HUVEC [9] and in the data set on U-87 MG [11] was inactive.

`COc1ccc2[nH]c3c(c2c1)CN(C(=O)Cc1ccccc1)CCC3`: in data set [1], the pIC50 was less than 4.70.

Consider `COc1ccc2[nH]c3c(c2c1)CN(C(=O)CN1CCOCC1)CCC3`, for which the pIC50 in [1] is less than 4.70.

For `COc1ccc2[nH]c3c(c2c1)CN(C(=O)Cc1ccncc1)CCC3`, the pIC50 in data set [1] is less than 4.70.

As to `COc1ccc2[nH]c3c(c2c1)CN(C(=O)CC(C)C)CCC3`, the pIC50 in [1] was less than 4.70.

The pIC50 is the IC50 on a negative log10 scale, so that one unit is a factor of ten. The inhibition in vivo is how much of the control response was suppressed.
